The NIST ThermoML archive (doi:10.1016/j.jct.2019.02.010)

Tests used:
[1] = xn = mol fraction of the nth substance listed; settings: for viscosity / mass density: 101.3 kPa, Liquid; for viscosity: Falling or rolling sphere viscometry; for mass density: Vibrating tube method; for surface tension liquid-gas: 298.15 K, Ring tensiometer
[2] = 101.33 kPa; for mass density: Vibrating tube method; for viscosity: Falling or rolling sphere viscometry

C[N+](C)(C)CCO.[Cl-] [choline chloride] + Oc1ccccc1
[1], x1 = 0.333
Settings	mass density [kg/m3]	viscosity [mPa·s]
293.15 K	1099.4	129.98
303.15 K	1093.4	74
313.15 K	1087.4	44.33
323.15 K	1081.5	30.23
333.15 K	1075.6	21.5

Settings	surface tension liquid-gas [mN/m]
[1], x1 = 0.333	35.46

CC(=O)CCC(=O)O [4-oxopentanoic acid] + C[N+](C)(C)CCO.[Cl-]
[1], x2 = 0.333
Settings	mass density [kg/m3]	viscosity [mPa·s]
293.15 K	1141.9	362.08
303.15 K	1135.2	183.72
313.15 K	1128.5	103.46
323.15 K	1121.9	62.8
333.15 K	1115.3	39.59

Settings	surface tension liquid-gas [mN/m]
[1], x2 = 0.333	39.95

C[N+](C)(C)CCO.[Cl-] [choline chloride] + OCCO
[1], x1 = 0.334
Settings	mass density [kg/m3]	viscosity [mPa·s]
293.15 K	1119.5	58.81
303.15 K	1113.9	38.9
313.15 K	1108.1	27.04
323.15 K	1102.5	19.74
333.15 K	1096.9	14.69

Settings	surface tension liquid-gas [mN/m]
[1], x1 = 0.334	45.66

CC(=O)CCC(=O)O [4-oxopentanoic acid]
[2], Metastable liquid
Settings	mass density [kg/m3]
293.15 K	1140.1
303.15 K	1131.6
313.15 K	1123
323.15 K	1114.5
333.15 K	1105.9
343.15 K	1097.4

CCCCO [butan-1-ol]
[2], Liquid
Settings	mass density [kg/m3]	viscosity [mPa·s]
293.15 K	809.5	2.95
303.15 K	801.9	2.28
313.15 K	794.1	1.79
323.15 K	786.2	1.42
333.15 K	778.1	1.15
